The subject of test [1] is Human T cell lymphoma (MOLT-4) cells. The test can be described thus: In vitro drug pretreatment of encapsulated cells, then growth in the peritoneal cavity of mice. Type of test: in vivo. The conditions noted are these: for No. of tumor cells per capsule: then 7 days i.p. in C57BL/6 mice. The method, then:
The encapsulated tumors are preferably incubated at 37° C in medium for 1 to 2 hours. A 25 percent (v/v) suspension can then be prepared (preferably without bovine serum). The suspension can be inoculated in the peritoneal cavity of the host animal (i.e., with a 16 gauge needle).
(§1) In the experiments that follow, the drugs and other agents tested were administered to the host animal by injection at the various times called for in the protocol being tested. At various periods after treatment, the mice were killed by cervical dislocation. The peritoneal cavity of each mouse was washed with PBS or medium and floating microcapsules were aspirated using a large bore plastic Pasteur pipette. Microcapsules were transferred to 15 ml tubes and washed 3 to 4 times with PBS to remove host peritoneal cells. The washed microcapsules were aspirated into 1 ml serological pipettes, allowed to sediment, and the volume of packed microcapsules was determined. Microcapsules were then transferred to a glas dounce homogenizer (7 ml volume) and disrupted with 3 strokes of an A-tolerance plumger. Cells suspensions were filtered through nylon mesh to remove the disrupted membranes. The suspensions containing tumor cells were centrifuged and the pellet was resuspended in 0.25 to 0.5 ml of complete medium. After mixing equal volumes of cell suspension and trypan blue, viable cell counts were determined using a hemocytometer.
(§2) The number of tumor cells per 1 ml of packed microcapsules was determined as follows: a = ? where b = total number of tumor cells in the suspension, and c = total volume of microcapsules used for the preparation of this suspension.
(§3) By comparing the number of tumor cells in 1 ml of microcapsules derived from non-treated and drug-treated mice, the percent inhibition of tumor cell growth was calculated: [formula] where ac = number of tumor cells from the non-treated control microcapsules, and ae = number of tumor cells from the drug treated microcapsules.
Human T cell lymphoma (MOLT-4) cells were encapsulated according to the procedures described above and incubated in vitro in RPMI I640 medium supplemented with 10 percent fetal calf serum, glutamine and antibiotics for one hour of 37°C. During incubation they were exposed to various concentrations of 1,3-B (2-chloroethyl)-1-nitrosourea (BCNU), 5-fluorouracil (5-FU) and adriamycin. The microcapsules were then washed and implanted into the peritoneal cavity (i.p.) of C57BL/6 mice (Animal Production Area NCI-Frederick Cancer Research Facility) using #18-14 needles. After seven days the mice were sacrificed and their peritoneal cavities were washed with PBS and aspirated to collect the microcapsules in a Pasteur pipette. The microcapsules were washed several times from the host peritoneal cells. The microcapsules from the individual mice were counted by transferring them into wells of a 96 well microplate. Using an inverted microscope, the numbers of microcapsules in each well were counted. Each well was washed out and microcapsules were transferred into the glass homogenizer.
Microcapsules were then disrupted, and the suspension was filtered, centrifugated and reconstituted with PBS. The concentration and total number of cells were counted using a hemocytometer.

The subject of test [2] is P388 Resistant Cells. The test can be described thus: In vivo growth of encapsulated adriamycin-resistant P388 lymphoma cells in nude mice. As to the method: as §1, §2, §3
Since drug-resistance is one of the most important causes of failure in chemotherapy, it is crucial that a predictive assay be able to distinguish between effective and non-effective drugs for particular tumors. […] One day later the mice received by i.v. administration Adriamycin (6 mg/kg), Vinblastin (1 mg/kg) or Cyclophosphamide (100 mg/kg). Five days after administration some of the mice were sacrificed, the microcapsules were recovered and the numbers of tumor cells inside the capsules were determined. The remaining mice received a second administration and the microcapsules were recovered from the remaining mice 3 days afterwards. The results are shown in Table 7 and correlate well with the known characteristics of P388 cell line and its variant.

Each structure is given as a SMILES string.

For orientation: inhibition means the change of the read-out against control, counted positive when it falls.

As for `COc1cccc2c1C(=O)c1c(O)c3c(c(O)c1C2=O)C[C@@](O)(C(=O)CO)C[C@@H]3O[C@H]1C[C@H](N)[C@H](O)[C@H](C)O1` [Adriamycin], the “No. of tumor cells per capsule” value in test [1] (2.5 µg/ml in vitro for one hour) was 2 x 10^3; in test [1] (10 µg/ml in vitro for one hour), 10. The inhibition at 2.5 µg/mL in test [1] (Mus musculus, MOLT-4, ip) is 60%. The inhibition at 10 µg/mL in test [1] (Mus musculus, MOLT-4, ip) came out at 100%. Besides, the No. cells/ml in test [2] (5 + 3 days after treatment (3 days after second administration), Adriamycin 6, Vinblastin 1, Cyclophosphamide 100 mg/kg i.v.) is 32 x 10^6; in test [2] (5 days after treatment, i.v. one day after inoculation, Adriamycin 6, Vinblastin 1, Cyclophosphamide 100 mg/kg), 18 x 10^6. Moreover, in test [2] (Adriamycin 6 mg/kg, Vinblastin 1 mg/kg i.v.), the “inhibiting the growth of the drug-resistant variant (in words)” value is listed as “Neither Adriamycin nor Vinblastin in the doses administered was effective”.

The values are drawn from EP0218400A1, “Assay methods for chemotherapeutic agents” (DAMON BIOTECH, INC., priority 1985, dated 1987).
